This is an account of results in ChEMBL document CHEMBL1201862, “PubChem BioAssay data set” (2004).

Assay [1] can be described thus: A549 cell cytotoxicity, dose response, cytotoxicity control, 24 h, CellTiter-Glo luminescence, cherry-picks (AID 1053115). Conditions: A549, 24 h. Type of assay: functional, cell-based.
Assay [2] in a line: luciferase signal loss, tTA control fusion, HeLa F-luc tTA cells, dry powder, counter-screen for HIV Env fusion inhibitor project, dose response (AID 687021). It counts as functional, cell-based.
Assay [3] is described as follows: HIV Env cell-cell fusion inhibitors, dose response, HIV entry, plate reader, dry powder (AID 687023). Type of assay: functional, cell-based.
The nature of assay [4]: inhibitors of PGC1a acetylation in cells, dose response, cell-based, cherry-picked samples (AID 720514).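 Further: potency may reflect raised or lowered acetylation signal.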 Type of assay: functional.
The target in assay [5] is RNA-editing ligase 1, mitochondrial (Trypanosoma brucei brucei, UniProt P86926). Put plainly: TbREL1 ligase inhibitors, dose response, biochemical, fluorescence, Trypanosoma brucei (AID 1117295). It counts as functional.
The nature of assay [6]: Late-stage results from the probe development effort to identify antagonists of arginine vasopressin receptor 1a (AVPR1a): fluorescence-based cell-based dose response AVPR1a inhibition assay. It counts as functional.
A short description of assay [7]: Late-stage results from the probe development effort to identify antagonists of arginine vasopressin receptor 1a (AVPR1a): fluorescence-based cell-based dose response OXTR inhibition counterscreen assay. Type of assay: functional.
The target in another assay is Vasopressin V2 receptor (Homo sapiens, UniProt P30518). Put plainly: Late-stage results from the probe development effort to identify antagonists of arginine vasopressin receptor 1a (AVPR1a): fluorescence-based cell-based dose response AVPR2 inhibition counterscreen assay. It counts as functional.
The next assay has as its target Vasopressin V1b receptor (Homo sapiens, UniProt P47901). Nature of the assay: Late-stage results from the probe development effort to identify antagonists of arginine vasopressin receptor 1a (AVPR1a): fluorescence-based cell-based dose response AVPR1b inhibition counterscreen assay. Type of assay: functional.

Each structure is given as a SMILES string. Calls of active or inactive are those of the source. Some results are limits rather than exact numbers.

Chain of Vasopressin V2 receptor (P30518 whole entry): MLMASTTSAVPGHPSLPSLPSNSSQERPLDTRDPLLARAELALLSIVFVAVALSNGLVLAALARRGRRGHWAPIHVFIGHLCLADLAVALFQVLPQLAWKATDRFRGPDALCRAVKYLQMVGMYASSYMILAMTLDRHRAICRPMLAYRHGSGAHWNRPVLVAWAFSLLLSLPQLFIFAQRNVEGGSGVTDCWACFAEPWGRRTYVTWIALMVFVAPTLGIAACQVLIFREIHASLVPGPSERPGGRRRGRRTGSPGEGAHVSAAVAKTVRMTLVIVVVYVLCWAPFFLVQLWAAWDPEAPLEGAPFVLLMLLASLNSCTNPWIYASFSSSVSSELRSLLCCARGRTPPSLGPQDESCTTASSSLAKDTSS
Chain of Vasopressin V1b receptor (P47901 whole entry): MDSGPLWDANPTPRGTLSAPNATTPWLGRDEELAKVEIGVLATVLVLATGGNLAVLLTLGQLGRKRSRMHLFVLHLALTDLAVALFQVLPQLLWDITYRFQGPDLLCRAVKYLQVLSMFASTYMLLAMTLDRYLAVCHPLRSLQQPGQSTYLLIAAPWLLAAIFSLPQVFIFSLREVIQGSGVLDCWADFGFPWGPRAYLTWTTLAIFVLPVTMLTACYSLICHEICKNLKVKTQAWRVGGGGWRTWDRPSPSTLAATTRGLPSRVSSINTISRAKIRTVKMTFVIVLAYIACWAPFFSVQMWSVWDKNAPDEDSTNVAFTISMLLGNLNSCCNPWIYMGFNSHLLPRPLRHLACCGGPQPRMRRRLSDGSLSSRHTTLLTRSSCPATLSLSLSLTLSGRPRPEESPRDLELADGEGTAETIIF
Chain of RNA-editing ligase 1, mitochondrial (P86926 whole entry): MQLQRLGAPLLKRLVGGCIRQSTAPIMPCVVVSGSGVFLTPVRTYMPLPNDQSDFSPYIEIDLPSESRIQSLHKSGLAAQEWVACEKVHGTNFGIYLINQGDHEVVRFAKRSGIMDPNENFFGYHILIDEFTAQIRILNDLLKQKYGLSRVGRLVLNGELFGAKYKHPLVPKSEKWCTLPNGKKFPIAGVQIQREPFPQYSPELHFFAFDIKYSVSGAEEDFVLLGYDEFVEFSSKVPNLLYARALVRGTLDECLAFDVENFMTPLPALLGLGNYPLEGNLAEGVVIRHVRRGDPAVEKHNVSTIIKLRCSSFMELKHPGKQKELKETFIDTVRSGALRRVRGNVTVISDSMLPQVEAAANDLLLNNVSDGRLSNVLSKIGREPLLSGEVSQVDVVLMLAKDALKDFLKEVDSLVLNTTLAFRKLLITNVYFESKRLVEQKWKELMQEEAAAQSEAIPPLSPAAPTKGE

On to `COc1ccccc1CN1CC[C@@H]2[C@H]1c1cc(C#Cc3ccccc3)ccc1N[C@@H]2CO`, for which the half-maximal activity concentration (AC50) in assay [1] was 46.8 µM (active).

`CCOc1ccc(S(=O)(=O)NCc2ccccn2)cc1`: the AC50 in assay [2] and in assay [3] was > 70 µM (inactive) each time. As for `CCOc1ccc(N2C(=O)Cc3ccccc3C2=O)cc1`, the AC50 in assay [4] was 32.7 µM (active). Consider `COC(=O)C1=C(C)N(Cc2ccccc2C(F)(F)F)C(NCc2ccc(C(F)(F)F)cc2)=NC1c1cccc(F)c1` (centres undefined), for which the IC50 in assay [5] is > 96.6 µM (inactive). Turning to `O=C(C1CCN(c2ncccc2C(F)(F)F)CC1)N(CC1CC1)c1ccc(Cl)cc1`, the IC50 was 0.084 µM (active) in assay [6], 0.8 µM (active) in [7], 5.91 µM (active) on Vasopressin V2 receptor and 5.93 µM (active) on Vasopressin V1b receptor.
